{"source": "patent US12259388B2", "about": "“Cofilin phosphorylation for quantifying CD4 T cell damage and predict CD4 T cell recovery from anti-retroviral therapy” (VIRONGY L.L.C., priority 2018, dated 2025)", "key": {"[1]": {"test_system": "cofilin phosphorylation in A3R5.7 CD4 T cells", "assay": "Western blot for p-cofilin and cofilin after R10015 treatment", "assay_type": "cell-based, human", "description": "(§1) FIG. 3. Quantification of effects of cofilin hyperactivation on T cell migration. (A) A3R5.7 T cells were treated with different dosages of R10015 for one hour. Phospho-cofilin and total cofilin were quantified by Western blot. (B) The relative ratio of p-cofilin/cofilin in response to R10015 treatment was plotted (n=4 independent experiments). (C) R10015 inhibits cofilin phosphorylation and T cell chemotaxis in response to CXCL12. A3R5.7 cells were treated with different dosages of R10015 for one hour, and then added to the upper chamber of a 24-well transwell plate. The lower chamber was filled with CXCL12 (40 ng/ml), and cell migration to the lower chamber was quantified (n=3 independent experiments). (D) The linear correlation between T cell migration and levels of cofilin phosphorylation. The X-axis is the relative ratio of p-cofilin/cofilin derived from (B); the Y-axis is the number of migrating cells derived from (C).\nT cell migration is controlled by cycles of cofilin phosphorylation and dephosphorylation, which are regulated by the LIM-domain kinase (LIMK) through serine 3 phosphorylation (27, 54). To quantify the direct effect of cofilin hyperactivation on T cell migration, we used a recently discovered LIMK inhibitor, R10015 (55), to block cofilin phosphorylation in A3R5.7 CD4 T cells. We then performed CXCL12-induced T cell chemotaxis in the presence of cofilin hyperactivation. […]"}, "A3R5.7 CD4 T cells": {"test_system": "A3R5.7 CD4 T cells", "assay": "CXCL12-induced T cell chemotaxis (transwell) assay", "assay_type": "cell-based, human", "conditions": "CXCL12 40 ng/ml", "description": "as §1, with “(D) The linear correlation between T cell migration and levels of cofilin phosphorylation. The X-axis is the relative ratio of p-cofilin/cofilin derived from (B); the Y-axis is the number of migrating cells derived from (C).” left out\nT cell migration is controlled by cycles of cofilin phosphorylation and dephosphorylation, which are regulated by the LIM-domain kinase (LIMK) through serine 3 phosphorylation (27, 54). To quantify the direct effect of cofilin hyperactivation on T cell migration, we used a recently discovered LIMK inhibitor, R10015 (55), to block cofilin phosphorylation in A3R5.7 CD4 T cells. […]\nA half million cells were resuspended into 100 μl RPMI-1640 medium and then added to the upper chamber of a 24-well transwell plate (Corning, Corning, NY). […] The plate was incubated at 37° C. for 2 hours, and then the upper chamber was removed and cells in the lower chamber were counted. […]"}, "[2]": {"test_system": "cofilin, LIMK in resting CD4 T cells", "conditions": "cited from earlier work; for effect on cofilin activation / phosphorylation: resting CD4 T cells"}, "HIV-1": {"test_system": "HIV-1", "conditions": "cited from earlier work"}}}
{"molecule": "COC(=O)c1ccc2nc(C3CCN(c4ncnc5[nH]cc(Cl)c45)CC3)[nH]c2c1", "note": "[R10015]", "values": [{"measurement": "inhibition of cofilin phosphorylation", "setting": "[1]; A3R5.7 CD4 T cells, different dosages of R10015 for one hour, ratio p-cofilin/cofilin", "result": "dosage-dependent inhibition of cofilin phosphorylation"}, {"measurement": "cofilin phosphorylation reduced to", "setting": "[1]; at around 15 M of R10015, A3R5.7 cells, one hour", "result": "around 50%"}, {"measurement": "decrease in cell migration", "setting": "A3R5.7 CD4 T cells; A3R5.7 CD4 T cells, at 50% reduction in cofilin phosphorylation", "result": "20-40%"}, {"measurement": "T cell chemotaxis in response to CXCL12", "setting": "A3R5.7 CD4 T cells; A3R5.7 cells treated one hour", "result": "inhibits"}]}
{"molecule": "C=C1[C@@H](O)[C@@H]2O[C@]3(CC[C@H](/C=C/[C@@H](C)[C@@H]4CC(C)=C[C@@]5(O[C@H](C[C@@](C)(O)C(=O)O)CC[C@H]5O)O4)O3)CC[C@H]2O[C@@H]1[C@@H](O)C[C@H](C)[C@H]1O[C@@]2(CCCCO2)CC[C@H]1C", "note": "[okadaic acid]", "values": [{"measurement": "effect on cofilin activation / phosphorylation", "setting": "[2]", "result": "increase cofilin phosphorylation"}, {"measurement": "effect on LIMK", "setting": "[2]; transient treatment of resting CD4 T cells", "result": "activates LIMK"}, {"measurement": "effect on HIV latent infection of resting CD4 T cells", "setting": "HIV-1", "result": "promotes HIV latent infection"}]}
{"molecule": "CN[C@@H]1C[C@H]2O[C@@](C)([C@@H]1OC)n1c3ccccc3c3c4c(c5c6ccccc6n2c5c31)C(=O)NC4", "note": "[staurosporine]", "values": [{"measurement": "effect on cofilin activation / phosphorylation", "setting": "[2]", "result": "induce gradual cofilin activation"}, {"measurement": "effect on HIV latent infection of resting CD4 T cells", "setting": "HIV-1", "result": "enhances HIV latent infection"}]}
{"molecule": "pertussis toxin", "values": [{"measurement": "effect on cofilin activation / phosphorylation", "setting": "[2]", "result": "inhibits cofilin activation"}, {"measurement": "effect on HIV latent infection of resting CD4 T cells", "setting": "HIV-1", "result": "inhibits"}]}
